Experimental data as given in the NIST ThermoML archive (doi:10.1016/j.jct.2017.10.002).
Several values for one entry are separate records, joined by “and”; a condition that tells them apart may be missing. Equal values may be shown once.

Details: 101.33 kPa, relaxation calorimetry

CCc1ncc[n-]1.CCc1ncc[n-]1.[Zn+2] [zinc(II) 2-ethylimidazolide]
molar entropy
Details | Crystal | Glass
1 K | – | 0.008253 J/K/mol
2 K | – | 0.0244 J/K/mol
3 K | – | 0.06286 J/K/mol
4 K | – | 0.1418 J/K/mol
5 K | 0.3545 J/K/mol and 0.1203 J/K/mol and 0.3132 J/K/mol | 0.2736 J/K/mol
6 K | 0.5863 J/K/mol and 0.2089 J/K/mol and 0.5177 J/K/mol | 0.464 J/K/mol
7 K | 0.8825 J/K/mol and 0.3306 J/K/mol and 0.7801 J/K/mol | 0.7139 J/K/mol
8 K | 1.241 J/K/mol and 0.4909 J/K/mol and 1.099 J/K/mol | 1.022 J/K/mol
9 K | 1.66 J/K/mol and 0.6925 J/K/mol and 1.472 J/K/mol | 1.385 J/K/mol
10 K | 2.135 J/K/mol and 0.9364 J/K/mol and 1.895 J/K/mol | 1.801 J/K/mol
15 K | 5.252 J/K/mol and 2.784 J/K/mol and 4.686 J/K/mol | 4.579 J/K/mol
20 K | 9.321 J/K/mol and 5.606 J/K/mol and 8.386 J/K/mol | 8.3 J/K/mol
25 K | 14.04 J/K/mol and 9.263 J/K/mol and 12.76 J/K/mol | 12.73 J/K/mol
30 K | 19.18 J/K/mol and 13.59 J/K/mol and 17.67 J/K/mol | 17.72 J/K/mol
35 K | 24.62 J/K/mol and 18.45 J/K/mol and 23 J/K/mol | 23.14 J/K/mol
40 K | 30.28 J/K/mol and 23.75 J/K/mol and 28.69 J/K/mol | 28.89 J/K/mol
45 K | 36.11 J/K/mol and 29.41 J/K/mol and 34.67 J/K/mol | 34.85 J/K/mol
50 K | 42.08 J/K/mol and 35.35 J/K/mol and 40.84 J/K/mol | 40.96 J/K/mol
60 K | 54.27 J/K/mol and 47.75 J/K/mol and 53.56 J/K/mol | 53.5 J/K/mol
70 K | 66.58 J/K/mol and 60.58 J/K/mol and 66.61 J/K/mol | 66.3 J/K/mol
80 K | 78.9 J/K/mol and 73.57 J/K/mol and 79.79 J/K/mol | 79.14 J/K/mol
90 K | 91.13 J/K/mol and 86.51 J/K/mol and 92.92 J/K/mol | 91.86 J/K/mol
100 K | 103.17 J/K/mol and 99.26 J/K/mol and 105.89 J/K/mol | 104.37 J/K/mol
110 K | 114.97 J/K/mol and 111.76 J/K/mol and 118.62 J/K/mol | 116.61 J/K/mol
120 K | 126.51 J/K/mol and 123.99 J/K/mol and 131.07 J/K/mol | 128.56 J/K/mol
130 K | 137.77 J/K/mol and 135.92 J/K/mol and 143.23 J/K/mol | 140.23 J/K/mol
140 K | 148.77 J/K/mol and 147.57 J/K/mol and 155.11 J/K/mol | 151.61 J/K/mol
150 K | 159.51 J/K/mol and 158.95 J/K/mol and 166.72 J/K/mol | 162.74 J/K/mol
160 K | 170.01 J/K/mol and 170.08 J/K/mol and 178.07 J/K/mol | 173.62 J/K/mol
170 K | 180.29 J/K/mol and 180.98 J/K/mol and 189.19 J/K/mol | 184.28 J/K/mol
180 K | 190.36 J/K/mol and 191.68 J/K/mol and 200.09 J/K/mol | 194.75 J/K/mol
190 K | 200.25 J/K/mol and 202.19 J/K/mol and 210.8 J/K/mol | 205.03 J/K/mol
200 K | 209.96 J/K/mol and 212.52 J/K/mol and 221.34 J/K/mol | 215.14 J/K/mol
210 K | 219.52 J/K/mol and 222.71 J/K/mol and 231.73 J/K/mol | 225.11 J/K/mol
220 K | 228.95 J/K/mol and 232.75 J/K/mol and 241.97 J/K/mol | 234.95 J/K/mol
230 K | 238.24 J/K/mol and 242.68 J/K/mol and 252.1 J/K/mol | 244.67 J/K/mol
240 K | 247.43 J/K/mol and 252.5 J/K/mol and 262.12 J/K/mol | 254.28 J/K/mol
250 K | 256.52 J/K/mol and 262.22 J/K/mol and 272.04 J/K/mol | 263.8 J/K/mol
260 K | 265.53 J/K/mol and 271.86 J/K/mol and 281.89 J/K/mol | 273.23 J/K/mol
270 K | 274.45 J/K/mol and 281.43 J/K/mol and 291.67 J/K/mol | 282.58 J/K/mol
273.15 K | 277.25 J/K/mol and 284.43 J/K/mol and 294.74 J/K/mol | 285.51 J/K/mol
280 K | 283.31 J/K/mol and 290.94 J/K/mol and 301.39 J/K/mol | 291.87 J/K/mol
290 K | 292.12 J/K/mol and 300.39 J/K/mol and 311.06 J/K/mol | 301.09 J/K/mol
298.15 K | 299.26 J/K/mol and 308.06 J/K/mol and 318.92 J/K/mol | 308.57 J/K/mol
300 K | 300.87 J/K/mol and 309.8 J/K/mol and 320.7 J/K/mol | 310.26 J/K/mol
